Experiments:
U87-MG [1] = assay: Matrigel Transwell invasion (metastasis inhibition) in human glioblastoma; type: cell-based; conditions: 0, 1, 2, and 4 μM, 24 hours, compared to the untreated control
Experimental: A human glioblastoma cell line U87-MG was seeded at a density of 8×10^4 cells/well on Matrigel-coated filters (Transwell invasion chambers, Corning), and the cells were then treated with the compound (AON-MG23-01 or AON-MG23-02; each at 0, 1, 2, and 4 μM) of the present invention, and cultured at 37 °C in a CO2 incubator for 24 hours. After the culturing was completed, the cells were fixed and stained using the Diff-Quick Stain kit (Sysmex, Kobe, Japan). Images of the stained cells were taken under a microscope, the cells were counted using Image J software, and statistical analysis was then performed.

U87-MG cells = assay: CCK assay of cell proliferation inhibition in human glioblastoma cells; type: cell-based; conditions: 0, 1, 2, and 4 μM, 48 hours, 450 nm
Experimental: Human glioblastoma cell line U87-MG cells were seeded at a density of 1×10^4 cells/well in a 96-well plate and cultured for 24 hours. Thereafter, the cells were treated with DMSO as a control and the compound AON-MG23-01 or AON-MG23-02 of the present invention, and then cultured for 48 hours. The compound of the present invention was treated at various concentrations of 0, 1, 2, and 4 μM. 10 μL of a CCK reagent was added and reacted for an hour, and the absorbance was then measured at 450 nm.

U87-MG [2] = assay: Matrigel invasion (metastasis inhibition) of AON-MG23-02 derivatives in human glioblastoma; type: cell-based; conditions: 0, 8, 16, and 32 μM, 24 hours, compared to the untreated control
Experimental: A human glioblastoma cell line U87-MG was seeded at a density of 8×10^4 cells/well on the top of a Matrigel-coated filter (Transwell invasion chambers, Corning), and then treated with 0, 8, 16, and 32 μM of each of the compound derivatives AON-MG23-05, AON-MG23-06, AON-MG23-07, and AON-MG23-08 of the present invention, and cultured at 37 °C in a CO2 incubator for 24 hours. After the culturing was completed, the cells were fixed and stained using a Diff-Quick stain kit (Sysmex, Kobe, Japan). Images of the stained cells were taken under a microscope, the cells were counted using Image J software, and statistical analysis was then performed.

ANO1 [3] = assay: Western blot comparison with EGFR inhibitor and ANO1 inhibitor: ANO1 expression; type: cell-based, human; conditions: U87-MG; 4 μM AON-MG23-02; 48 hours; vs untreated, 2 μM Osimertinib, 100 μM CaCCinh-A01, and their combination
Experimental: (§1) The inhibitory effects of the compound AON-MG23-02 of the present invention, the EGFR inhibitor Osimertinib, and the ANO1 inhibitor CaCCinh-A01 on the expression of ANO1, EGFR, and pEGFR proteins in a glioblastoma cell line were compared. A human glioblastoma cell line U87-MG was seeded at a density of 100×10^4 cells/dish in a 60 mm dish, and cultured for 24 hours. Thereafter, the cells were treated with 4 μM of AON-MG23-02, 2 μM of the EGFR inhibitor Osimertinib, 100 μM of the ANO1 inhibitor CaCCinh-A01, or a combination of 2 μM of Osimertinib and 100 μM of CaCCinh-A01, and cultured for 48 hours. The cultured cells were harvested and the harvested cells were lysed for Western blotting. An anti-ANO1 antibody (Abcam, ab53212), an anti-pEGFR antibody (Cell Signaling, #4407S), an anti-EGFR antibody (Cell Signaling, #4267S), and an anti-ACTIN antibody (sigma, #A2066) were used as antibodies for Western blotting. Protein concentration was quantified using the BSA method (a protein quantitation assay, a bovine serum albumin assay) (Pierce, Cat. 23225). […] The amount of each protein was quantified and analyzed using Image J software.

pEGFR = assay: Western blot comparison with EGFR inhibitor and ANO1 inhibitor: pEGFR expression; type: cell-based, human; conditions: U87-MG; 4 μM AON-MG23-02; 48 hours; vs untreated, 2 μM Osimertinib, 100 μM CaCCinh-A01, and their combination
Experimental: as §1

U87-MG [4] = assay: Matrigel invasion comparison with EGFR inhibitor and ANO1 inhibitor in human glioblastoma; type: cell-based; conditions: 4 μM AON-MG23-02, 16 hours, vs untreated, Osimertinib, 100 μM CaCCinh-A01
Experimental: A human glioblastoma cell line U87-MG was seeded at a density of 6×10^4 cells/well on the top of a Matrigel-coated filter (Transwell invasion chambers, Corning), treated with 4 μM of the compound AON-MG23-02 of the present invention, […] of the EGFR inhibitor Osimertinib, 100 μM of the ANO1 inhibitor CaCCinh-A01, or a combination of 4 μM of Osimertinib and 100 μM of CaCCinh-A01, and then cultured at 37 °C in a CO2 incubator for 16 hours. After the culturing was completed, the cells were fixed and stained using a Diff-Quick stain kit (Sysmex, Kobe, Japan). Images of the stained cells were taken under a microscope, the cells were counted using Image J software, and statistical analysis was then performed.

EGFR [5] = assay: Western blot comparison with EGFR inhibitor and ANO1 inhibitor: EGFR expression; type: cell-based, human; conditions: U87-MG; 4 μM AON-MG23-02; 48 hours; vs untreated, 2 μM Osimertinib, 100 μM CaCCinh-A01, and their combination
Experimental: as §1

EGFR [6] = assay: Western blot: AON-MG23-02 derivatives, EGFR protein expression in glioblastoma cell line; type: cell-based, human; conditions: U87-MG; 0, 8, 16, and 32 μM; 48 hours; compared to the untreated control
Experimental: (§2) The inhibitory effects of AON-MG23-02 derivatives AON-MG23-05, AON-MG23-06, AON-MG23-07, and AON-MG23-08 on ANO1 and EGFR protein expression in a glioblastoma cell line were compared. A human glioblastoma cell line U87-MG was seeded at a density of 100×10^4 cells/dish in a 60 mm dish, and cultured for 24 hours. Thereafter, the cells were treated with 0, 8, 16, and 32 μM of the AON-MG23-05, AON-MG23-06, AON-MG23-07, and AON-MG23-08 derivatives, respectively, and cultured for 48 hours. The cultured cells were harvested, and the harvested cells were lysed for Western blotting. An anti-ANO1 antibody (Abcam, ab53212), an anti-pEGFR antibody (Cell Signaling, #4407S), an anti-EGFR antibody (Cell Signaling, #4267S), and an anti-ACTIN antibody (sigma, #A2066) were used as antibodies for Western blotting. Protein concentration was quantified using the […] (a protein quantitation assay, a bovine serum albumin assay) (Pierce, Cat. 23225). […] The amount of each protein was quantified and analyzed using Image J software.

ANO1 [7] = assay: Western blot: AON-MG23-02 derivatives, ANO1 protein expression in glioblastoma cell line; type: cell-based, human; conditions: U87-MG; 0, 8, 16, and 32 μM; 48 hours; compared to the untreated control
Experimental: as §2

SMILES | degree of penetration into Matrigel (U87-MG [1]) | inhibition of proliferation of U87-MG cells (U87-MG cells) | degree of penetration into Matrigel (derivatives) (U87-MG [2]) | expression of EGFR protein (derivatives) (EGFR [6]) | expression of ANO1 protein (derivatives) (ANO1 [7]) | further results
COc1cc(N2CCC(N3CCN(C)CC3)CC2)ccc1Nc1ncc(Cl)c(Nc2ccccc2N(C2CC2)S(C)(=O)=O)n1 [AON-MG23-01, N-(2-((5-chloro-2-((2-methoxy-4-(4-(4-methylpiperazin-1-yl)piperidin-1-yl)phenyl)amino)pyrimidin-4-yl)amino)phenyl)-N-cyclopropylmethanesulfonamide] | reduced degree of penetration into Matrigel compared to the untreated control | inhibits the proliferation of U87-MG cells | – | – | – | –
CCN(Cc1ccc2ccccc2c1)CC(O)c1ccc(CN2Cc3ccccc3C2=O)cc1 (stereo not shown) [AON-MG23-06, 2-(4-(2-(ethyl(naphthalen-2-ylmethyl)amino)-1-hydroxyethyl)benzyl)isoindolin-1-one] | – | – | reduced degree of penetration into Matrigel compared to the untreated control | – | – | –
COc1cc(N2CCC(N(C)C)CC2)ccc1Nc1ncc(Cl)c(Nc2ccccc2N(C2CC2)S(C)(=O)=O)n1 [AON-MG23-02, N-(2-((5-chloro-2-((4-(4-(dimethylamino)piperidin-1-yl)-2-methoxyphenyl)amino)pyrimidin-4-yl)amino)phenyl)-N-cyclopropylmethanesulfonamide] | reduced degree of penetration into Matrigel compared to the untreated control | inhibits the proliferation of U87-MG cells | – | – | – | expression of ANO1 protein (comparison) (ANO1 [3]): reduces the expression of ANO1, EGFR, and pEGFR proteins compared to the untreated control, the EGFR inhibitor-treated group, the ANO1 inhibitor-treated group, and the EGFR inhibitor and ANO1 inhibitor combination-treated group; expression of pEGFR protein (comparison) (pEGFR): reduces the expression of ANO1, EGFR, and pEGFR proteins compared to the untreated control, the EGFR inhibitor-treated group, the ANO1 inhibitor-treated group, and the EGFR inhibitor and ANO1 inhibitor combination-treated group; degree of penetration into Matrigel (comparison with EGFR inhibitor and ANO1 inhibitor) (U87-MG [4]): reduced degree of penetration into Matrigel compared to the untreated control, the EGFR inhibitor-treated group, and the ANO1 inhibitor-treated group; expression of EGFR protein (comparison) (EGFR [5]): reduces the expression of ANO1, EGFR, and pEGFR proteins compared to the untreated control, the EGFR inhibitor-treated group, the ANO1 inhibitor-treated group, and the EGFR inhibitor and ANO1 inhibitor combination-treated group
O=C1c2ccccc2CN1Cc1ccc(CCP(=O)(Cc2ccc3ccccc3c2)Cc2ccc3ccccc3c2)cc1 [AON-MG23-07, 2-(4-(2-(bis(naphthalen-2-ylmethyl)phosphoryl)ethyl)benzyl)isoindolin-1-one] | – | – | reduced degree of penetration into Matrigel compared to the untreated control | – | – | –
O=C1c2ccccc2CN1Cc1ccc(CCN(CCO)Cc2ccc3ccccc3c2)cc1 [AON-MG23-05, 2-(4-(2-((2-hydroxyethyl)(naphthalen-2-ylmethyl)amino)ethyl)benzyl)isoindolin-1-one] | – | – | reduced degree of penetration into Matrigel compared to the untreated control | reduced expression of ANO1 and EGFR proteins compared to the untreated control | reduced expression of ANO1 and EGFR proteins compared to the untreated control | –
NC(=O)N(CCc1ccc(CN2Cc3ccccc3C2=O)cc1)Cc1ccc2ccccc2c1 [AON-MG23-08, 1-(naphthalen-2-ylmethyl)-1-(4-((1-oxoisoindolin-2-yl)methyl)phenethyl)urea] | – | – | reduced degree of penetration into Matrigel compared to the untreated control | reduced expression of ANO1 and EGFR proteins compared to the untreated control | reduced expression of ANO1 and EGFR proteins compared to the untreated control | –
